In brackets after ≈: the same amount, converted by molar mass. Where a SMILES comes first, the peptide text is derived from it.
Legend:
Type in all cases: cell-based
[1] = test system: E. faecalis cra4024 (EF 01)
Excerpt: (§1) The experimental scheme reported in Figure 6 helped to simplify and optimize the in vitro testing of the antibacterial activity of the different AMPs. The initial transparent microtiter plate for the determination of the minimum inhibitory concentration (MIC) by optical density (OD) measurement was conveniently used as a starting point not only for the alterative determination of the MIC by luminescence but also for the minimum bactericidal concentration (MBC) and for the minimum biofilm inhibitory concentration (MBIC), as explained below. For every test peptide, at least three independent experiments were performed on each bacterial strain per test condition (100% MHB and 20% MHB). The sole exception to this rule was when MIC values were on rare occasions found to be greater than 500 µg/mL. Under these circumstances, two consecutive experiments were performed to confirm the results. In this case, the antibacterial activity was considered insignificant and the third experiment was generally considered unnecessary.
(§2) The antibacterial properties of the test AMPs were assayed under two distinct conditions of bacterial culture: (i) with bacteria cultured in undiluted Mueller–Hinton II Broth (MHB II) and (ii) with bacteria cultured in diluted MHB II as earlier described in Campoccia et al.. Briefly, a few colonies of each bacterial strain, taken from overnight cultures on Mueller–Hinton Agar plates (MHA, PO50007A, ThermoScientific, Thermo Fisher Scientific, Segrate, Italy), were resuspended in Mueller–Hinton II Broth (MHB II, 24107, Liofilchem, Roseto degli Abruzzi, Italy), either undiluted or at a 20% dilution in deionized water. The concentration of bacteria was adjusted to approximately 10^8 CFU/mL, as estimated by optical density reading at 625 nm, using a Hewlett Packard G1103A spectrophotometer (Waldbronn, Germany). The bacterial suspension was further diluted 1:100 in 100% or 20% MHB II.
(§3) Serial 1:2 dilutions of all the test peptides were prepared in sterile deionized water starting from a stock solution of 1 mg/mL. Microtiter plates (96-Well CytoOne® Plate, CC7672-7596, Starlab S.r.l., Milano, Italy) were prepared by adding a volume of 100 µL of inoculum to 100 µL of treatment. Each AMP dilution was assayed in triplicate; each microplate included triplicate wells for the blank (100 µL of sterile distilled water and 100 µL of sterile MHB II), and 3 to 6 wells for reference control of 100% growth (100 µL of sterile deionized water and 100 µL of MHB II inoculated with the bacterium). Positive controls were performed in triplicate wells with 100 µL of a 10 mg/mL gentamicin solution (G1272, Sigma Aldrich, Milan, Italy) and with 100 µL of a solution containing 10,000 units/mL of penicillin and 10,000 µg/mL of streptomycin (penicillin–streptomycin, 15140-122, Life Technologies, Monza, Italy).
(§4) After a 1-day incubation at 37 °C, the MIC was determined by two distinct methods: (1) optical density measurement and (2) bioluminescence reading. In the first case, the optical density of the microtiter plates was read directly at a wavelength of 600 nm and the MIC was estimated from the curves obtained by plotting the OD measurements. For the bioluminescence reading, after gentle resuspension, 100 µL of each treated culture was transferred to a new 96-well non-treated plate (236105/237105, Life Technologies, Monza, Italy) and the metabolic activity was determined by the kit Bac-Titer Glo Microbial Cell Viability Assay (G8231, Promega Italia S.r.l, Milan, Italy). Optical density and bioluminescence were read by a Modulus II multifunction plate reader (Turner BioSystems, Sunnyvale, CA, USA) or, alternatively, by an Infinite M Plex (Tecan Group Ltd., Männedorf, Switzerland). As earlier described in [24], in the case of luminescence, the MIC was identified from the curves of growth inhibition as the first concentration leading to a 1-log reduction in bacterial growth (i.e., 90% growth inhibition). […]

[2] = test system: S. epidermidis cra4029 (SE 02)
Excerpt: as §1, §2, §3, §4

[3] = test system: E. faecalis cra4033 (EF 02)
Excerpt: as §1, §2, §3, §4

[4] = test system: S. aureus cra2198 (SA 02)
Excerpt: as §1, §2, §3, §4

[5] = test system: S. epidermidis cra4029 (SE 02); remark: listed apart in the source
Excerpt: as §1
as §2, with “II. […]” for “II.”
(§5) For assessing the MBC, 10 μL of bacterial suspensions was taken from wells corresponding to MIC, 2× MIC, and 4× MIC and then plated on MHA plates. […] The MBC was determined as the lowest dilution causing absence of bacterial colonies growth on the plate.
(§6) In order to assess the extent of the interference of the culture medium composition with the antibacterial activity of the three peptides, a “Rate of Abatement” of the bactericidal properties (RoA) was calculated using the following formula (Equation (1)):RoA = MBCMHB/MBC20% MHB(1)
(§7) RoA indicates the fold increases in the MBC when tested in undiluted medium […], i.e., with maximal interference of broth polyanionic substances, with respect to diluted medium […]. […] A more versatile measure to express the loss of activity was calculated as follows. […]

[6] = test system: E. faecalis cra4033 (EF 02); remark: listed apart in the source
Excerpt: as §1
as §2, with “II. […]” for “II.”
as §5, §6, §7

[7] = test system: E. coli cra4038 (EC)
Excerpt: as §1
as §2, with “II. […]” for “II.”
as §5, §6, §7

[8] = test system: E. faecalis cra4024 (EF 01); remark: listed apart in the source
Excerpt: as §1, §2, §3
(§8) The wells of the microplate, initially used for the determination of the MIC, were rinsed twice with 220 µL of phosphate-buffered solution (PBS) to remove loosely attached and planktonic bacteria. A total of 100 µL of fresh PBS and 100 µL of Bac-Titer Glo solution (G8231, Promega Italia S.r.l., Milan, Italy) were added to each well. After a 10 min incubation, a volume of 100 µL was transferred to a new microplate for luminescence determination as described above. As a general rule, the MBIC value was identified as the concentration at which a reduction of at least a log in the metabolic activity was observed.

[9] = test system: P. aeruginosa cra3840 (PA 02); conditions: for MBIC: cra3840 (PA 02, 24 h)
Excerpt: as §1, §2, §3, §8

[10] = test system: S. epidermidis cra4034 (SE 01); conditions: cra4034 (SE 01, 24 h)
Excerpt: as §1, §2, §3, §8

[11] = test system: S. epidermidis cra4029 (SE 02); remark: listed apart in the source
Excerpt: as §1, §2, §3, §8

[12] = test system: E. coli cra4038 (EC); conditions: for LR, Log10 reduction in bacterial metabolism for a given MBIC: cra4038 (EC)
Excerpt: as §1, §2, §3, §8

[13] = test system: S. aureus cra4030 (SA 01); conditions: for MBIC: cra4030 (SA 01, 24 h)
Excerpt: as §1, §2, §3, §8

[14] = test system: S. aureus ATCC 25923 (SA 00); conditions: ATCC 25923, 24 h
Excerpt: as §1, §2, §3, §8

[15] = test system: S. aureus cra2198 (SA 02); conditions: cra2198 (SA 02, 24 h)
Excerpt: as §1, §2, §3, §8

[16] = test system: entire panel of strains; test: MBC, all strains of the panel; conditions: undiluted MHB II, re-tested plating 10 μL
Description: For assessing the MBC, 10 μL of bacterial suspensions was taken from wells corresponding to MIC, 2× MIC, and 4× MIC and then plated on MHA plates. After one day of incubation at 37 °C, the agar plates were examined for bacterial growth. The MBC was determined as the lowest dilution causing absence of bacterial colonies growth on the plate.

[17] = test system: P. aeruginosa cra3840 (PA 02)
Excerpt: as §1, §2, §3, §4

[18] = test system: P. aeruginosa cra4004 (PA 01)
Excerpt: as §1, §2, §3, §4

[19] = test system: E. faecalis cra4033 (EF 02); remark: listed apart in the source
Excerpt: as §1, §2, §3, §8

[20] = test system: P. aeruginosa cra4004 (PA 01); remark: listed apart in the source
Excerpt: as §1, §2, §3, §8

CC(C)C[C@H](NC(=O)CN)C(=O)N[C@@H](CC(C)C)C(=O)N[C@@H](CCCNC(=N)N)C(=O)N[C@@H](C)C(=O)N[C@@H](CO)C(=O)N[C@@H](CO)C(=O)N[C@@H](CCCCN)C(=O)N[C@@H](Cc1c[nH]c2ccccc12)C(=O)NCC(=O)N[C@@H](CCCNC(=N)N)C(=O)N[C@@H](CCCCN)C(=O)N[C@@H](Cc1ccc(O)cc1)C(=O)N[C@@H](Cc1ccc(O)cc1)C(=O)N[C@H](C(=O)N[C@@H](CC(=O)O)C(=O)N[C@@H](CC(C)C)C(=O)N[C@@H](C)C(=O)NCC(=O)N[C@@H](CS)C(=O)N[C@@H](C)C(=O)N[C@@H](CCCCN)C(=O)N[C@@H](C)C(=O)O)C(C)C [Dadapin-1] (H-GLLRASSKWGRKYYVDLAGCAKA-OH)
MIC [1]: >500 µg/mL
MIC [2]: > 500 µg/mL
MIC [3]: >500 µg/mL
MIC [4]: 15.63 µg/mL (≈ 6.22 µM)
MBC [5]: 15.63 µg/mL (≈ 6.22 µM)
MBC [6]: >500 µg/mL
MBC [7]: 31.25 to 62.5 µg/mL
LR, Log10 reduction in bacterial metabolism for a given MBIC ([8]; cra4024 (EF 01)): 3 LR
MBIC ([8]; cra4024 (EF 01, 24 h)): >500 µg/mL
LR, Log10 reduction in bacterial metabolism for a given MBIC ([9]; cra3840 (PA 02)): 3 LR
MBIC [9]: >500 µg/mL
MBIC [10]: 3.91 to 7.81 µg/mL
MBIC ([11]; cra4029 (SE 02, 24 h)): > 500 µg/mL
LR, Log10 reduction in bacterial metabolism for a given MBIC [12]: 2 LR
MBIC ([12]; cra4038 (EC, 24 h)): 15.63–31.25 (31.25) 2LR: 31.25 μg/mL
MBIC [13]: 7.81 to 15.63 µg/mL
MBIC [14]: 250 to 500 µg/mL
MBIC [15]: 500 µg/mL
MBC [16]: exceeded 500 μg/mL

CC(C)[C@H](NC(=O)[C@H](CCCCN)NC(=O)[C@H](Cc1ccccc1)NC(=O)[C@@H](NC(=O)[C@@H](NC(=O)[C@H](CCCCN)NC(=O)[C@@H](N)CCCCN)C(C)C)C(C)C)C(=O)N[C@@H](CCCCN)C(=O)N[C@@H](Cc1ccccc1)C(=O)N[C@@H](CCCCN)C(=O)O [KSL] (H-KKVVFKVKFK-OH)
MIC [17]: 3.91 µg/mL (≈ 3.13 µM)
MIC [18]: 3.91 µg/mL (≈ 3.13 µM)
MBIC [9]: 3.91 µg/mL
LR, Log10 reduction in bacterial metabolism for a given MBIC ([11]; cra4029 (SE 02)): 2 LR
LR, Log10 reduction in bacterial metabolism for a given MBIC ([19]; cra4033 (EF 02)): 2 LR
MBIC ([19]; cra4033 (EF 02, 24 h)): 250 µg/mL
LR, Log10 reduction in bacterial metabolism for a given MBIC [12]: 3 LR
LR, Log10 reduction in bacterial metabolism for a given MBIC ([13]; cra4030 (SA 01)): 2 LR
MBIC [13]: 1.95 µg/mL
MBIC [15]: 31.25 µg/mL
LR, Log10 reduction in bacterial metabolism for a given MBIC [20]: 3 LR

Reference: article PMC12386934, “Characteristics and Potential of KSL, KSL-W, and Dadapin-1 Antimicrobial Peptides for Preventing Infections of Orthopedic Prosthetic Devices: Identifying the Most Robust Candidate” (International Journal of Molecular Sciences, 2025)
